Experimental data taken from publication PMC2720136 (Bioorganic & medicinal chemistry, 2009).

Assays:
[1] = molecular target: T1, pig kidney FBPase (Sus scrofa, UniProt P00636); assay: Coupled-enzyme FBPase activity assay; format: biochemical
T1 sequence (P00636 1-338): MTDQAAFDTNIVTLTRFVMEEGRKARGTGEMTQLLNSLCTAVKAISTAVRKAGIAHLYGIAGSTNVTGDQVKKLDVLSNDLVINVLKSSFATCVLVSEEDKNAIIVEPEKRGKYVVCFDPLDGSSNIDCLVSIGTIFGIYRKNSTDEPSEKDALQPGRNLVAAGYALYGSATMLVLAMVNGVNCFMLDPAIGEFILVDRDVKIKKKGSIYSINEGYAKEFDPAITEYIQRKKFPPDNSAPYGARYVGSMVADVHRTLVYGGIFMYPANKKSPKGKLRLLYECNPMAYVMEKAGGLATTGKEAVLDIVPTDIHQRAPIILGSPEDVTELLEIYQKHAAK

[2] = tested on: human liver FBPase; assay: Inhibition of human liver FBPase by MB05032; format: biochemical; details: MB05032 EC50 (human liver FBPase) vs 4c IC50 (pig kidney FBPase)

SMILES: O=[N+]([O-])c1cccc(Nc2nc(-c3ccccc3)cs2)c1 [Compound 7a, N-(3-Nitrophenyl)-4-phenylthiazol-2-amine]
- inhibitory activity against the enzyme at 300 μM ([1]; pig kidney FBPase, 300 μM inhibitor): no significant inhibitory activity

SMILES: O=[N+]([O-])c1ccc(-c2csc(Nc3ccc(O)cc3)n2)cc1 [Compound 3d, 4-(4-(4-Nitrophenyl)thiazol-2-ylamino)phenol]
- inhibition with nitro at R5 (in words) ([1]; pig kidney FBPase): eliminated

SMILES: Oc1ccc(Nc2nc(-c3ccc(O)cc3)cs2)cc1 [Compound 3b, 4-(4-(4-Hydroxyphenyl)thiazol-2-ylamino)phenol]
- fold improved inhibitory activity of 3b over 3a ([1]; ratio of IC50, 3a vs 3b): 3 fold

SMILES: Oc1ccc(-c2csc(Nc3ccccc3O)n2)cc1 [Compound 5b, 2-(4-(4-Hydroxyphenyl)thiazol-2-ylamino)phenol]
- fold improved inhibition of 5b over 5a ([1]; ratio of IC50, 5a vs 5b): ~18 fold

SMILES: CC(C)Cc1sc(N)nc1-c1ccc(P(=O)(O)O)o1 [MB05032]
- fold better than 4c [2]: approximately 370 fold

SMILES: O=[N+]([O-])c1ccc(-c2csc(Nc3ccccc3)n2)cc1 [Compound 8e, 4-(4-Nitrophenyl)-N-phenylthiazol-2-amine]
- inhibition with nitro at R5 (in words) ([1]; pig kidney FBPase): eliminates inhibition
